Results as given in patent publication US12492403B2, “Aptamers and the use thereof in the treatment of cancer” (FUNDACIÓN PARA LA INVESTIGACIÓN BIOMÉDICA DEL HOSPITAL …, priority 2018, dated 2025).

Assays:
MCF7 cells = test: Transwell migration assay; format: cell-based, human; settings: MCF7, 150 nM, 24 hours migration
Description: (§1) FIGS. 13A, 13B and 13C. Effect of aptamer apMNKQ2 on the migration and invasion of breast cell lines. The three lines of study were seeded in 6-well plates at a density of 2.5×10^5 cells/well and transfected at 24 hours with apMNKQ2 at the established working concentrations. The cell lines were deprived of serum after 6 hours and collected and re-seeded (4×10^4 cells/well) after 24 hours in a transwell […], in order to perform migration and invasion assays, respectively. At 24 hours, the membranes of the transwell are stained with Hoechst and cells that have gone through the membranes are quantified using fluorescence microscopy (FIG. 13A). The boxes (FIGS. 13B and 13C) represent the mean±the maximum and minimum of 4-5 independent experiments (*p<0.05, **p<0.01, and ***p<0.001 with respect to the control aptamer AT).
(§2) Cell migration and invasion assays were performed using transwell (Corning, USA). The cells, previously transfected and incubated for 16 hours, were deprived of serum for 18 hours. After that time, they were collected, counted, and reseeded 4×10^4 cells in 300 μl of a serum-free complete medium inside the transwell (migration) or a transwell on which a layer of 100 μL of Matrigel (Corning, USA) (invasion) had previously been polymerized. […] Finally, two washes in PBS were performed, and 5 photographs of each membrane of the transwell were taken using a fluorescence microscope (Olympus IX70). The number of cells was analyzed using the imageJ program.
(§3) To analyze the effect of the aptamer on cell migration, experiments were carried out using transwells instead of the wound healing technique. […] At 18 hours, 40,000 cells are collected, counted, and seeded in small “baskets” in a serum-free medium, and these baskets are immersed in the well of the plate with complete serum, such that the serum acts as a chemoattractant and the cells migrate from the basket to the well, going through the membrane of the transwell. […]

MDA-MB-231 cells = test: Transwell migration assay; format: cell-based, human; settings: MDA-MB-231, 400 nM, 24 hours migration
Description: as §1, §2, §3

MDA-MB-468 cells = test: Transwell migration assay; format: cell-based, human; settings: MDA-MB-468, 50 nM, 24 hours migration
Description: as §1, §2, §3

[1] = tested on: MCF7, MDA-MB-231, and MDA-MB-468 cells; test: MTT activity after direct addition of aptamer (no transfectant); format: cell-based, human; settings: direct addition without transfectant, highest tested concentration (0.5, 1, and 2 μM tested), 48 hours
Description: FIG. 17. MTT activity measurement in breast lines after the direct addition of apMNKQ2. MCF7, MDA-MB-231, and MDA-MB-468 cells were seeded in 96-well plates at a density of 10^4 cells/well, and apMNKQ2 was added at concentrations of 0.5, 1, and 2 μM at 24 hours. MTT assays were performed after 48 hours. The graphs represent the mean of 3 independent experiments, and are normalized with respect to the control of the untreated cells.
MTT activity. The cells were seeded in 96-well plates and after having been transfected, the culture medium was removed and 100 μL/well of MTT at 1 mg/ml in culture medium were added. The plates were incubated for 90 minutes in an incubator with a moisture-saturated environment at 37° C. and 5% CO2/[…] and 100 μL/well of a lysis solution (10% SDS and 10 mM HCl) were added for dissolving the crystals. After 48 hours, the reduction of MTT was determined by means of spectrophotometry in Infinite F200 (TECAN, Switzerland) at 540 nm.
The signal of the aptamer with lipofectamine (FIG. 16B) is more intense and less scattered than when the aptamer enters directly (FIG. 16A). The difference is more evident in the aggregates co-localized in the nucleus. […]

4T1 cells = test: Transwell invasion assay in 4T1 cells; format: cell-based, mouse; settings: 500 nM, 48 h invasion
Description: FIG. 21A-21E. In vivo efficacy of apMNKQ2 in a mouse metastatic model with an orthotopic xenograft of 4T1 cells. (A) Effect of apMNKQ2 aptamer on the proliferation of 4T1 cells (mouse breast tumor line). 4T1 cells were seeded in p96 at a density of 1.5×10^3 cells/well. […] The graph (FIG. 21A) represents the means±SEM of 3 independent experiments. (B) Effect of apMNKQ2 aptamer on migration and invasion of 4T1 cells. Cells were seeded in p6 at a density of 2×10^5 cells/well and transfected with 500 nM apMNKQ2 at 24 hours. […] At 24 hours (migration) or 48 h (invasion), the transwell membranes were stained with Hoechst and the cells that had passed through the fluorescence microscopy were quantified. […] The number of metastases is analyzed by the reverse staining method (with Chinese ink) and the metastases grouped according to their size in four groups (0.5, 1, 2 and >2). […]
as §2, with “The cells, previously transfected and incubated for 16 hours, were deprived of serum for 18 hours.” left out, “The number of cells was analyzed using the imageJ program.” left out

In the case of “5′TGGGGTGGGCGGGCGGGGGTGGGGGTGGT-3′ (DNA, backbone and methylation of C not given here; further chemistry not fully specified) [apMNKQ2]”, the “inhibition of migration (transwell)” value (MCF7 cells) is reported as “in a statistically significant manner”, the “inhibition of migration (transwell)” value (MDA-MB-231 cells) is reported as “in a statistically significant manner” and the “inhibition of migration (transwell)” value (MDA-MB-468 cells) is reported as “capable of inhibiting migration”. The “reduction of MTT activity” value [1] was 15% and the “invasion of 4T1 cells” value (4T1 cells) was “significantly decrease”.
